From paper PMC5773487, “Harnessing insulin- and leptin-induced oxidation of PTP1B for therapeutic development” (Nature Communications, 2018)
“And” between values parts separate entries of the source, which are not always exact repeats. Equal entries are not always repeated. “Also recorded” adds a separate entry of the source. Where two headings read alike, the source gives them in different places.

T1: K36A/K41A PTP1B-OX mutant (Homo sapiens, UniProt P18031, K36A/K41A)
T1 construct: PTP1B (1–321) and TCPTP (1–317) cloned in pET21b vector were used as templates; 6xHis (C); made in house; host or cells: E. coli BL21 (DE3)-RIL
T1 sequence (P18031 1-321 K36A/K41A): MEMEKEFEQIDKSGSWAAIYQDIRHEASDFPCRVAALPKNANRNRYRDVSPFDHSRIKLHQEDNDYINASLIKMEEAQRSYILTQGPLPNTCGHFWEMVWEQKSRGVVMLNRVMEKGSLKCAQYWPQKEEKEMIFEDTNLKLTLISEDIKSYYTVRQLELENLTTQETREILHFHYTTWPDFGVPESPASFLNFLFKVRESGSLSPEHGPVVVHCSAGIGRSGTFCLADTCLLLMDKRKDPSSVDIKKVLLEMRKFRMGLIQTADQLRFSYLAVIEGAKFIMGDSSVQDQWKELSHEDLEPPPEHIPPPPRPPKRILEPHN

T2: PTP1B-CASA (Homo sapiens, UniProt P18031, C215A/S216A)
T2 construct: PTP1B (1–321) and TCPTP (1–317) cloned in pET21b vector were used as templates; 6xHis (C); made in house; host or cells: E. coli BL21 (DE3)-RIL
T2 sequence (P18031 1-321 C215A/S216A limits assumed): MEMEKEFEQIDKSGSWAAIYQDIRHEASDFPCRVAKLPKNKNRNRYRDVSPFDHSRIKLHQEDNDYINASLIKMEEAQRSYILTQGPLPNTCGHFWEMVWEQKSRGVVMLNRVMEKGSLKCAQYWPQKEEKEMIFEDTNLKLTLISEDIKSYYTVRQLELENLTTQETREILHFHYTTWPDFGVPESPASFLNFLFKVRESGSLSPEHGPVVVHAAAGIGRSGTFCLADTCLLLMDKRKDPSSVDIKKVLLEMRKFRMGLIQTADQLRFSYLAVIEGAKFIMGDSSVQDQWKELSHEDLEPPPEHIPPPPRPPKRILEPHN

T3: reversibly oxidized PTP1B-mut2 (L37F/K39E/K41R) (Homo sapiens, UniProt P18031, K39E/K41R/L37F)
T3 construct: PTP1B (1–321) and TCPTP (1–317) cloned in pET21b vector were used as templates; 6xHis (C); made in house; host or cells: E. coli BL21 (DE3)-RIL
T3 sequence (P18031 1-321 L37F/K39E/K41R): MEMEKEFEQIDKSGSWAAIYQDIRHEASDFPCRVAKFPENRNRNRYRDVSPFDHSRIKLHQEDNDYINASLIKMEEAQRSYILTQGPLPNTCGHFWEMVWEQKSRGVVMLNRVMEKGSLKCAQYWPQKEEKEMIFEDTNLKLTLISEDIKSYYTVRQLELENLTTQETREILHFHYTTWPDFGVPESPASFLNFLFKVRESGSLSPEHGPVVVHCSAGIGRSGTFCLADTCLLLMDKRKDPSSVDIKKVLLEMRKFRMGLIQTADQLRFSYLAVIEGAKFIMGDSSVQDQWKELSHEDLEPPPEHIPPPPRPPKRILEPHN

T4: reversibly oxidized TCPTP-mut2 (F39L/E41K/R43K) (Homo sapiens, UniProt P17706, E41K/F39L/R43K)
T4 construct: PTP1B (1–321) and TCPTP (1–317) cloned in pET21b vector were used as templates; 6xHis (C); made in house; host or cells: E. coli BL21 (DE3)-RIL
T4 sequence (P17706 1-317 F39L/E41K/R43K): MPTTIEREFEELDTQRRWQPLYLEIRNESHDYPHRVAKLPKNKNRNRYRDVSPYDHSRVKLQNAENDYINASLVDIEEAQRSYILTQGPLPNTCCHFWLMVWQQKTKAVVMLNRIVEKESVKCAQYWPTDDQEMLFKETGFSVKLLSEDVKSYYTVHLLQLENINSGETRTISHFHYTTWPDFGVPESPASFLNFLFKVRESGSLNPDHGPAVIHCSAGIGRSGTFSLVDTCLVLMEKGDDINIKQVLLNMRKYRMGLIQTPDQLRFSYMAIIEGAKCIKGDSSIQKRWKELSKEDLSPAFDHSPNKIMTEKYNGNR


What was measured:
[1] = target: T1, K36A/K41A PTP1B-OX mutant; experiment: reduction and reactivation of oxidized PTP1B-K36A/K41A, DiFMUP, TCEP; assay type: biochemical
Protocol: Fig. 5 Chelerythrine and scFv45 inhibit reactivation of PTP1B-OX by a similar mechanism. a Molecular modeling of chelerythrine binding to PTP1B-OX, with critical residues for the interaction highlighted on the right. b Oxidized PTP1B-wt (circle), PTP1B-K36A/K41A (square) were incubated with increasing concentrations of chelerythrine (0–10 mM) and phosphatase activity was measured using DiFMUP as substrate in the presence of the reducing agent TCEP (5 mM). c Oxidized PTP1B-wt (circle), PTP1B-mut1 (square), or PTP1B-mut2 (diamond) were incubated with increasing concentrations of chelerythrine (0–10 mM) and phosphatase activity was measured using DiFMUP as substrate in the presence of the reducing agent TCEP (5 mM). Individual data points represent the mean obtained from three separate experiments (n = 3; b, c). d Overlay of crystal structures of the reduced (blue) and oxidized (gray) form of PTP1B.

[2] = target: T2, PTP1B-CASA; experiment: isothermal titration calorimetry; assay type: binding; conditions: 25°C
Protocol: The studies were performed using a VP-ITC system from GE Healthcare. All titrations were performed at 25°C in de-gassed buffer (50 mM HEPES pH 7.0, 100 mM NaCl, 2 % DMSO, and 1 mM TCEP). The protein concentrations of PTP1B-CASA and PTP1B-CASA-mut2 were each 50 μM. Protein samples used in ITC were dialyzed completely against the buffer. Inhibitor (10 mM) in DMSO was diluted to make a stock solution of 0.2 mM in de-gassed buffer, which was then used as titrant in the syringe. The instrument was calibrated by using the heat of dilution of NaCl in water. […] The heat of ligand dilution was corrected by subtracting the average heat of injection after saturation. Origin software was used to fit and analyze the data.

[3] = target: T3, reversibly oxidized PTP1B-mut2 (L37F/K39E/K41R); experiment: in vitro binding assay (anti-HA co-immunoprecipitation)
Protocol: (§1) Purified proteins (wt or mutant form of PTP1B or TCPTP (50 nM)) were reversibly oxidized with […] H2O2 followed by a buffer exchange using 0.5 mL Zeba spin desalting columns 7K MWCO (Thermo Fisher Scientific) to remove H2O2. Increasing concentration of purified HA-tagged scFv45 (0–10 µM) was incubated with oxidized proteins in binding buffer (20 mM HEPES, pH 7.4, 300 mM NaCl, 0.05% BSA, 0.05% Tween-20) for 2 h at 4 °C. Anti-HA agarose (Roche, 50% slurry equilibrated in the binding buffer) was added and incubated for 1 h at 4 °C. Protein complexes bound to anti-HA beads were immunoprecipitated and washed three times; first with lysis buffer followed by two more washes with wash buffer (25 mM HEPES, 100 mM NaCl pH 7.4, 0.05% BSA, 0.05% Tween-20, and protease inhibitors). The complexes were separated by SDS-PAGE and analyzed by immunoblotting.

[4] = target: T4, reversibly oxidized TCPTP-mut2 (F39L/E41K/R43K); experiment: as above
Protocol: as §1

[5] = tested on: TCPTP; set-up: method as in PMID 21962515; conditions: oxidized or reduced states; cited from earlier work

Molecule	IC50 ([1]; TCEP 5 mM, DiFMUP, read-out: IC50 against K36A/K41A PTP1B-OX mutant) [µM]	inhibition of PTP1B-OX relative to K36AK41A PTP1B-OX ([1]; reviewer's summary in peer review file) [fold]	Kd ([2]; read-out: binding constant for PTP1B-CASA by ITC) [µM]	Kd ([2]; independent experiments, read-out: affinity for PTP1B-CASA by ITC)	binding to reversibly oxidized PTP1B-mut2 [3]	binding to reversibly oxidized TCPTP-mut2 [4]	binding to TCPTP [5]
COc1ccc2c(c[n+](C)c3c4cc5c(cc4ccc23)OCO5)c1OC [chelerythrine]	75	15	3	3.25 µM and 2.83 µM and 3.44 µM	–	–	–
scFv45: recombinant conformation-sensor single-chain variable fragment antibody recognizing oxidized PTP1B (antibody, V domains shown) VH: TVTLDESGGGLQAPGGALSLVCKASGFTFSSYDMGWIRQAPGKGLEYVAGITDNGRYASYGSAVDGRATISRDNGQSSVRLQLNNLRAEDTGTYYCARDDGSGWTGNSIDAWGHGTEVIVSE VL: ALTQPSSVSANPGGTVKITCSGSSSAYGYGWYQQKSPGSAPVTVIYNNNKRPSNIPSRFSGSKSGSTGTLTITGVQAEDEAVYFCGSEDSSTDAIFGAGTTLTVL	–	–	–	–	did not bind; also recorded: abrogated	promote binding	does not bind
